Assay results from the NIST ThermoML archive (doi:10.1021/je500936y).
Numbers after ± are expanded uncertainties.

How the values were obtained:
[1] = 100 kPa, Liquid; for speed of sound: Frequency=3 MHz, Sing-around technique in a fixed-path interferometer; for mass density: Vibrating tube method
[2] = refractive index (Na D-line) (dimensionless); conditions: 100 kPa, Liquid, Standard Abbe refractometry
[3] = refractive index (Na D-line) (dimensionless); xn = mol fraction of the nth substance listed; conditions: 100 kPa, Liquid, Standard Abbe refractometry, x1 = 1
[4] = xn = mol fraction of the nth substance listed; conditions: 100 kPa, Liquid, x1 = 1; for speed of sound: Frequency=3 MHz, Sing-around technique in a fixed-path interferometer; for mass density: Vibrating tube method

CCCCn1cc[n+](C)c1.F[B-](F)(F)F [1-butyl-3-methylimidazolium tetrafluoroborate]
Conditions	mass density, [1] [kg/m3]	refractive index, [2]	speed of sound, [1] [m/s]
298.15 K	1198.78 ± 0.39	1.42058 ± 0.00087	1565.1 ± 1.3
303.15 K	1195.18 ± 0.39	1.41913 ± 0.00087	1553.2 ± 1.2
308.15 K	1191.6 ± 0.39	1.41764 ± 0.00087	1541.3 ± 1.2
313.15 K	1188.04 ± 0.38	1.41621 ± 0.00087	1529.7 ± 1.2
318.15 K	1184.5 ± 0.38	1.41472 ± 0.00087	1518.2 ± 1.2
323.15 K	1180.98 ± 0.38	1.4133 ± 0.00087	1506.8 ± 1.2

CCCCn1cc[n+](C)c1.F[B-](F)(F)F [1-butyl-3-methylimidazolium tetrafluoroborate] + C=CN1CCCC1=O
Conditions	mass density, [4] [kg/m3]	refractive index, [3]	speed of sound, [4] [m/s]
298.15 K	1198.78 ± 0.39	1.42058 ± 0.00087	1565.1 ± 1.3
303.15 K	1195.18 ± 0.39	1.41913 ± 0.00087	1553.2 ± 1.2
308.15 K	1191.6 ± 0.39	1.41764 ± 0.00087	1541.3 ± 1.2
313.15 K	1188.04 ± 0.38	1.41621 ± 0.00087	1529.7 ± 1.2
318.15 K	1184.5 ± 0.38	1.41472 ± 0.00087	1518.2 ± 1.2
323.15 K	1180.98 ± 0.38	1.4133 ± 0.00087	1506.8 ± 1.2

C=CN1CCCC1=O [N-vinylpyrrolidone]
Conditions	mass density, [1] [kg/m3]	refractive index, [2]	speed of sound, [1] [m/s]
298.15 K	1039.36 ± 2	1.51119 ± 0.001	1521.5 ± 3.1
303.15 K	1034.95 ± 2	1.50886 ± 0.001	1502.5 ± 3.1
308.15 K	1030.55 ± 2	1.5065 ± 0.001	1483.7 ± 3.1
313.15 K	1026.14 ± 2	1.50415 ± 0.001	1465 ± 3.1
318.15 K	1021.73 ± 2	1.50181 ± 0.001	1446.5 ± 3.1
323.15 K	1017.33 ± 1.9	1.49948 ± 0.001	1428.1 ± 3.1
